Patent publication US20260176289A1, “SMALL MOLECULE INHIBITORS OF KRAS PROTEINS” (Merck Sharp & Dohme LLC, priority 2022, published 2026)
Read-outs that look alike come from different tables or passages of the source.

How the values were obtained:
KRAS-WT = KRAS-WT (Homo sapiens, UniProt P01116); assay: SOS-catalyzed nucleotide exchange assay (Procedure A, TR-FRET), KRAS-WT; format: biochemical; conditions: nucleotide exchange, read-out: KRAS WT GNE IC50
Summary of the method: (§1)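 RAS (G12C carries C51S/C80L/C118S) loaded with Bodipy-GDP, complexed with Tb-streptavidin; cpd 60 min RT; + SOS/3 mM GTP. G12C 3/40 nM, WT 1/40, NRAS 1.25/40 nM RAS/SOS, 60 min; G12V 1.25/160 nM, 90 min. Normalized to DMSO and saturating inhibitor; 4PL fit.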

KRAS-G12D = KRAS-G12D (Homo sapiens, UniProt P01116, G12D); assay: SOS-catalyzed nucleotide exchange assay (Procedure A, TR-FRET), KRAS-G12D; format: biochemical
Summary of the method: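 Signal ratio (520/495 nm, excitation 340 nm) reports Bodipy-GDP retention on biotinylated RAS after SOS-catalyzed exchange with 3 mM GTP. SOS was 40 nM, except 160 nM for G12V. Room-temperature exchange lasted 60 min (90 min for G12V), following a 60 min compound preincubation.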

KRAS-G12V = KRAS-G12V (Homo sapiens, UniProt P01116, G12V); assay: SOS-catalyzed nucleotide exchange assay (Procedure A, TR-FRET), KRAS-G12V; format: biochemical
Summary of the method: as §1

AsPC-1 cells = assay: Cellular phospho-ERK assay, AsPC-1 cells (homozygous KRAS-G12D); format: cell-based; conditions: Homo sapiens, read-out: AsPC1 pERK IC50
Summary of the method: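 Cells seeded at 10,000-15,000 per well were incubated overnight, then exposed to compound for 2 hours at 37 °C in a 10-point, 1:3 series topping at 30 μM final. Lysates were assayed by Alpha SureFire Ultra multiplex for p-ERK and total ERK; IC50 came from a 4-parameter logistic fit of their ratio.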

[1] = nucleotide exchange, read-out: KRAS G12D GNE IC50
[2] = nucleotide exchange, read-out: KRAS G12V GNE IC50
[3] = ASPC1, 2 h, 2 hours compound incubation

Sequence of KRAS-WT (P01116 with tags, fused parts or gaps isoform P01116-2): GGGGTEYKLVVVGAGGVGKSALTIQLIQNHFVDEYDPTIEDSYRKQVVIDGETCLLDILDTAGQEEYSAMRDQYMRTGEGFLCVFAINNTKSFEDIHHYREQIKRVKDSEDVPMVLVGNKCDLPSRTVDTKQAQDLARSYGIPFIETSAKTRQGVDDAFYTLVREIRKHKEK
Sequence of KRAS-G12V (P01116 with tags, fused parts or gaps isoform P01116-2 G12V): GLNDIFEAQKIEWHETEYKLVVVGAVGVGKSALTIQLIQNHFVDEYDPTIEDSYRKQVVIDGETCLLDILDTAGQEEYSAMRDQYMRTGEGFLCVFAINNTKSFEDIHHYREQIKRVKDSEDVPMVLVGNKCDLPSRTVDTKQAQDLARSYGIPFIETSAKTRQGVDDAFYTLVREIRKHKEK
Sequence of KRAS-G12D (P01116 with tags, fused parts or gaps isoform P01116-2 G12D): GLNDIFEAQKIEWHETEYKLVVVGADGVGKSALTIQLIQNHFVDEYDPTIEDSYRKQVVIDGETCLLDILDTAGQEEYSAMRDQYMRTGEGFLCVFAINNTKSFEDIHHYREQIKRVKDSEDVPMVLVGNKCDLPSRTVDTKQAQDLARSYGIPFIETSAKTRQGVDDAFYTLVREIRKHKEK

SMILES | IC50 (KRAS-WT) | IC50 (KRAS-G12D; [1]) | IC50 (KRAS-G12V; [2]) | IC50 (AsPC-1 cells; ASPC1, 2 h, KRAS-G12D, 2 hours) | IC50 (KRAS-G12D; KRAS G12D GNE IC50, nucleotide exchange) | IC50 (KRAS-G12V; KRAS G12V GNE IC50, nucleotide exchange) | IC50 (AsPC-1 cells; ASPC1, KRAS-G12D, 2 hours) | IC50 (AsPC-1 cells; [3]) | IC50 (AsPC-1 cells; ASPC1, 2 hours compound incubation)
C[C@@H]1CC[C@@H](COc2nc(N3CCOC[C@@](C)(O)C3)c3c(n2)sc2c(-c4c(C5CC5)c(C(F)(F)F)cc5[nH]ncc45)nccc23)N1C [Ex-86, (6S)-4-(8-(5-cyclopropyl-6-(trifluoromethyl)-1H-indazol-4-yl)-2-(((2S,5R)-1,5-dimethylpyrrolidin-2-yl)methoxy)pyrido[4′,3′:4,5]thi-eno[2,3-d]pyrimidin-4-yl)-6-methyl-1,4-oxazepan-6-ol] | 33.8 nM | 14.6 nM | 21.2 nM | 361 nM |  |  |  |  | 
C[C@@]1(O)COCCN(c2nc(OC[C@@]34CCCN3C[C@H](F)C4)nc3sc4c(-c5c6c(cc7[nH]ncc57)C5CC5C6)nccc4c23)C1 (stereo partly drawn) [Ex-91, (6S)-4-(2-(((2R,7aS)-2-fluorotetrahydro-1H-pyrrolizin-7a(5H)-yl)methoxy)-8-(5,5a,6,6a-tetrahydro-1H-cyclopropa[3,4]cyclopen-ta[1,2-f]indazol-4-yl)pyrido[4′,3′:4,5]thieno [2,3-d]pyrimidin-4-yl)-6-methyl-1,4-oxazepan-6-ol] | 129 nM | 65 nM | 103 nM | 399 nM |  |  |  |  | 
C[C@@]1(O)COCCN(c2nc(OC[C@@]34CCCN3C[C@H](F)C4)nc3sc4c(-c5c6c(cc7[nH]ncc57)CCC6C(F)(F)F)nccc4c23)C1 (some centres unmarked) [Ex-92] | 482 nM | 226 nM | 340 nM | 1860 nM |  |  |  |  | 
CC1=CCc2cc3[nH]ncc3c(-c3nccc4c3sc3nc(OC[C@@]56CCCN5C[C@H](F)C6)nc(N5CCOC[C@@](C)(O)C5)c34)c21 [Ex-106, (6S)-4-(2-(((2R,7aS)-2-fluorotetrahydro-1H-pyrrolizin-7a(5H)-yl)methoxy)-8-(5-methyl-1,7-dihydrocyclopenta[f]inda-zol-4-yl)pyrido[4′,3′:4,5]thieno [2,3-d]pyrimidin-4-yl)-6-methyl-1,4-oxazepan-6-ol] | 55.1 nM | 19.7 nM | 30.6 nM | 128 nM |  |  |  |  | 
CCC1=CC(F)(F)c2cc3[nH]ncc3c(-c3nccc4c3sc3nc(OC[C@@]56CCCN5C[C@H](F)C6)nc(N5CCOC[C@@](C)(O)C5)c34)c21 [Ex-114, (6S)-4-(8-(5-ethyl-7,7-difluoro-1,7-dihydrocyclopenta[f]inda-zol-4-yl)-2-(((2R,7aS)-2-fluorotetrahydro-1H-pyrrolizin-7a(5H)-yl)methoxy)pyrido[4′,3′:4,5]thi-eno[2,3-d]pyrimidin-4-yl)-6-methyl-1,4-oxazepan-6-ol] | 380 nM | 165 nM | 278 nM | 670 nM |  |  |  |  | 
Cc1cccc(-c2nccc3c2sc2nc(OC[C@@]45CCCN4C[C@H](F)C5)nc(N4CCOC[C@@](C)(O)C4)c23)c1C [Ex-120, (S)-4-(8-(2,3-dimethylpheny1)-2-(((2R,7aS)-2-fluorotetrahydro-1H-pyrrolizin-7a(5H)-yl)methoxy)pyrido[4′,3′:4,5]thi-eno[2,3-d]pyrimidin-4-yl)-6-methyl-1,4-oxazepan-6-ol] | 1080 nM | 403 nM | 269 nM | 2030 nM |  |  |  |  | 
Cc1c(Cl)cccc1-c1nccc2c1sc1nc(OC[C@@]34CCCN3C[C@H](F)C4)nc(N3CCOC[C@@](C)(O)C3)c12 [Ex-121, (S)-4-(8-(3-chloro-2-methylphenyl)-2-(((2R,7aS)-2-fluorotetrahydro-1H-pyrrolizin-7a(5H)-yl)methoxy)pyrido[4′,3′:4,5]thi-eno[2,3-d]pyrimidin-4-yl)-6-methyl-1,4-oxazepan-6-ol] | 1030 nM | 369 nM | 278 nM | 3430 nM |  |  |  |  | 
C[C@@]1(O)COCCN(c2nc(OC[C@@]34CCCN3C[C@H](F)C4)nc3sc4c(-c5cccc(Cl)c5[Si](C)(C)C)nccc4c23)C1 [Ex-123, (S)-4-(8-(3-chloro-2-(trimethylsilyl)phenyl)-2-(((2R,7aS)-2-fluorotetrahydro-1H-pyrrolizin-7a(5H)-yl)methoxy)pyri-do[4′,3′:4,5]thieno[2,3-d]pyrimidin-4-yl)-6-methyl-1,4-oxazepan-6-ol] | 434 nM |  |  |  | 173 nM | 157 nM | 2060 nM |  | 
C[C@@]1(O)COCCN(c2nc(OC[C@@]34CCCN3C[C@H](F)C4)nc3sc4c(-c5cc(O)cc(Cl)c5C5CC5)nccc4c23)C1 [Ex-124, (S)-4-(8-(3-chloro-2-cyclopropyl-5-hydroxyphenyl)-2-(((2R,7aS)-2-fluorotetrahydro-1H-pyrrolizin-7a(5H)-yl)methoxy)pyri-do[4′,3′:4,5]thieno[2,3-d]pyrimidin-4-yl)-6-methyl-1,4-oxazepan-6-ol] | 39.4 nM | 11.1 nM | 24.1 nM | 151 nM |  |  |  |  | 
CN1CCc2cc3[nH]ncc3c(-c3nccc4c3sc3nc(OC[C@@]56CCCN5C[C@H](F)C6)nc(N5CCOC[C@@](C)(O)C5)c34)c21 [Ex-125, (6S)-4-(2-(((2R,7aS)-2-fluorotetrahydro-1H-pyrrolizin-7a(5H)-yl)methoxy)-8-(5-methyl-1,5,6,7-tetrahydropyrrolo[2,3-f]indazol-4-yl)pyrido[4′,3′:4,5]thieno[2,3-d]pyrimidin-4-yl)-6-methyl-1,4-oxazepan-6-ol] | 161 nM | 66 nM | 94 nM | 1030 nM |  |  |  |  | 
C=CC(F)(F)c1c(C)cc2[nH]ncc2c1-c1nccc2c1sc1nc(OC[C@@]34CCCN3C[C@H](F)C4)nc(N3CCOC[C@@](C)(O)C3)c12 [Ex-152, (6S)-4-(8-(5-(1,1-difluoroallyl)-6-methyl-1H-indazol-4-yl)-2-(((2R,7aS)-2-fluorotetrahydro-1H-pyrrolizin-7a(5H)-yl)methoxy)pyrido[4′,3′:4,5]thieno[2,3-d]pyrimidin-4-yl)-6-methyl-1,4-oxazepan-6-ol] | 195 nM | 76.9 nM | 106 nM |  |  |  |  | 636 nM | 
C#CC(F)(F)c1c(C)cc2[nH]ncc2c1-c1nccc2c1sc1nc(OC[C@@]34CCCN3C[C@H](F)C4)nc(N3CCOC[C@@](C)(O)C3)c12 [Ex-153, (6S)-4-(8-(5-(1,1-difluoroprop-2-yn-1-yl)-6-methyl-1H-indazol-4-yl)-2-(((2R,7aS)-2-fluorotetrahydro-1H-pyrrolizin-7a(5H)-yl)methoxy)pyrido[4′,3′:4,5]thieno[2,3-d]pyrimidin-4-yl)-6-methyl-1,4-oxazepan-6-ol] | 322 nM | 123 nM | 215 nM |  |  |  |  |  | 1640 nM
C[C@@]1(O)COCCN(c2nc(OC[C@@]34CCCN3C[C@H](F)C4)nc3sc4c(-c5c(C(F)(F)F)c(C(F)F)cc6[nH]ncc56)nccc4c23)C1 [Ex-155, (6S)-4-(8-(6-(difluoromethyl)-5-(trifluoromethyl)-1H-indazol-4-yl)-2-(((2R,7aS)-2-fluorotetrahydro-1H-pyrrolizin-7a(5H)-yl)methoxy)pyrido[4′,3′:4,5]thieno[2,3-d]pyrimidin-4-yl)-6-methyl-1,4-oxazepan-6-ol] | 350 nM | 158 nM | 211 nM |  |  |  |  | 927 nM | 
Cc1cc2cnn(C)c2c(-c2nccc3c2sc2nc(OC[C@@]45CCCN4C[C@H](F)C5)nc(N4CCOC[C@@](C)(O)C4)c23)c1C(F)(F)F [Ex-157, (6S)-4-(8-(1,5-dimethyl-6-(trifluoromethyl)-1H-indazol-7-yl)-2-(((2R,7aS)-2-fluorotetrahydro-1H-pyrrolizin-7a(5H)-yl)methoxy)pyrido[4′,3′:4,5]thieno[2,3-d]pyrimidin-4-yl)-6-methyl-1,4-oxazepan-6-ol] | 9650 nM | 288 nM | 4230 nM |  |  |  |  | 1310 nM | 
